In patent publication US11918582B2 (RAPT Therapeutics, Inc., priority 2021, dated 2024):

Biological target: T1, human HPK1 (MAP4K1) (Homo sapiens, UniProt Q92918)
T1 construct: Recombinant human HPK1 kinase domain was obtained from ThermoFisher (Cat. #PV6357) and SignalChem (Cat. #M23-11G); purchased ThermoFisher; SignalChem PV6357; M23-11G
T1 sequence (Q92918 17-274 limits assumed): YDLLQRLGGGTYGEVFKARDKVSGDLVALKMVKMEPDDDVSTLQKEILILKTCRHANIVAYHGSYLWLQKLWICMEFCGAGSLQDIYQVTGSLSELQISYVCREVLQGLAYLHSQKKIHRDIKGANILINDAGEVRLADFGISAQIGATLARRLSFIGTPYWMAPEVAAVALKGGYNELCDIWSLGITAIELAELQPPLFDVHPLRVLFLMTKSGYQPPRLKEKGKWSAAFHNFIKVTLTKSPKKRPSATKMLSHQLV
Experiment: Biochemical assay for activity against HPK1 (ADP-Glo, MBP substrate)
Conditions: recombinant human HPK1 kinase domain, 1 nM enzyme, ADP-Glo luminescence
Text: These compounds are made by the synthetic methods described earlier herein. Example 227 Biochemical Assay for Testing Compounds for Activity against HPK1
The enzymatic activity of human HPK1 (MAP4K1) was monitored in a biochemical assay in the presence or absence of compounds, using a peptide substrate (myelin basic protein, MBP), with an ADP-Glo assay kit (Promega, Cat. #V9103). An increase in phosphorylation of the peptide by HPK1 was indicative of its kinase activity.
Recombinant human HPK1 kinase domain was obtained from ThermoFisher (Cat. #PV6357) and SignalChem (Cat. #M23-11G). A 1 nM HPK1 kinase enzyme solution was prepared from the HPK1 stock received from the commercial supplier using an assay buffer containing 50 mM HEPES (4-(2-hydroxyethyl)-1-piperazineethanesulfonic acid) pH 7.5 (Fisher Scientific, Cat. #H1035), 150 mM NaCl (Fisher Scientific, Cat. #50843067), 3 mM TCEP-HCl (Tris(2-carboxyethyl)phosphine hydrochloride; Fisher Scientific, Cat. #PIPG82080), 10 mM MgCl2 (Fisher Scientific, Cat. #AM9530G), 0.005% Tween-20 (Fisher Scientific, Cat. #BP337500) and 0.01% BSA (bovine serum albumin; ThermoFisher, Cat. #15260037), in ultra-pure water. The final concentration of the assay buffer was 770 nM. A 5 mM stock solution of the peptide substrate was prepared using […] MBP (Myelin Basic Protein, Active Motif, Cat. #31314), 10 mM ATP (adenosine 5′-triphosphate; Sigma-Aldrich, Cat. #GE27-2056-01) and of assay buffer.
Test compounds were dissolved in DMSO (dimethyl sulfoxide) at 10 mM and then serial dilutions were prepared using a ViaFlow assist multichannel dispenser (Integra ViaFlo). 20 nL of test compounds at various concentrations were dispensed into a 1536-well assay plate (Corning Cat. #7247) using an Echo Nanoliter dispenser (Labcyte ECHO 550). […] of a 1 nM solution of HPK1 kinase enzyme diluted in assay buffer was added to the compound-containing plate using a Mantis Microliter dispenser (Formulatrix Mantis), covered with a lid, and incubated for 15 minutes at room temperature. 50 nL of a 5 mM stock solution of the peptide substrate (MBP) were added using the Echo Nanoliter dispenser. The plate was covered with a lid, centrifugated at 500 rpm for 1 minute and incubated for 2 hours at room temperature. […] of ADP-Glo reagent A was added using the Mantis Microliter dispenser, centrifugated at 500 rpm for 30 seconds and incubated for 40 minutes at room temperature. […] of ADP-Glo reagent B was added using the Mantis Microliter dispenser, centrifugated at 500 rpm for 30 seconds and incubated for 30 minutes at room temperature. Peptide phosphorylation was measured by luminescence on an Envision plate reader (PerkinElmer).
The HPK1 biochemical IC50 activity levels of the compounds of Examples 1-225 were tested using this assay and are shown in Table 2.

SMILES	IC50 [nM]
COc1cc2c(cc1Nc1ncc3cnn(C4CCC(C)(CO)CC4)c3n1)CN(C)CC2 (mixture of isomers) [Example 75, [4-[6-[(6-methoxy-2-methyl-3,4-dihydro-1H-isoquinolin-7-yl)amino]pyrazolo[3,4-d]pyrimidin-1-yl]-1-methyl-cyclohexyl]methanol]	> 251
COc1cc2c(cc1Nc1ncc3cnn([C@H]4CCCC[C@@H]4C)c3n1)CN(C)CC2 (racemic) [Example 30, rac-6-methoxy-2-methyl-N-(1-((1S,2S)-2-methylcyclohexyl)-1H-pyrazolo[3,4-d]pyrimidin-6-yl)-1,2,3,4-tetrahydroisoquinolin-7-amine]	100 to 250
COc1cc2c(cc1Nc1ncc3cnn([C@H]4CC[C@H](C(=O)O)C4)c3n1)CN(C)CC2 (racemic) [Example 41, rac-(1S,3S)-3-(6-((6-methoxy-2-methyl-1,2,3,4-tetrahydroisoquinolin-7-yl)amino)-1H-pyrazolo[3,4-d]pyrimidin-1-yl)cyclopentane-1-carboxylic acid]	100 to 250
CNC(=O)[C@H]1CC[C@H](n2ncc3cnc(Nc4cc5c(cc4OC)CCN(C)C5)nc32)C1 (racemic) [Example 43, rac-(1S,3S)-3-(6-((6-methoxy-2-methyl-1,2,3,4-tetrahydroisoquinolin-7-yl)amino)-1H-pyrazolo[3,4-d]pyrimidin-1-yl)-N-methylcyclopentane-1-carboxamide]	< 100
COc1cc2c(cc1Nc1ncc3cnn(C[C@@H]4CCC[C@H]4C(N)=O)c3n1)CN(C)CC2 (racemic) [Example 159, racemic trans-2-[[6-[(6-methoxy-2-methyl-3,4-dihydro-1H-isoquinolin-7-yl)amino]pyrazolo[3,4-d]pyrimidin-1-yl]methyl]cyclopentanecarboxamide]	< 100
COc1cc2c(cc1Nc1ncc3cnn(C[C@@H]4CCC[C@H]4CO)c3n1)CN(C)CC2 (racemic) [Example 160, Rac-trans-2-[[6-[(6-methoxy-2-methyl-3,4-dihydro-1H-isoquinolin-7-yl)amino]pyrazolo[3,4-d]pyrimidin-1-yl]methyl]cyclopentyl]methanol]	< 100
CN1CCc2ccc(Nc3ncc4cnn(C[C@@H]5CCC[C@H]5C(=O)O)c4n3)cc2C1 (racemic) [Example 161, Rac-trans-2-[[6-[(2-methyl-3,4-dihydro-1H-isoquinolin-7-yl)amino]pyrazolo[3,4-d]pyrimidin-1-yl]methyl]cyclopentanecarboxylic Acid]	< 100
COc1cc2c(cc1Nc1ncc3cnn(C[C@@H]4CCC[C@@H]4C(=O)O)c3n1)CN(C)CC2 (racemic) [Example 162, Rac-cis-2-[[6-[(6-methoxy-2-methyl-3,4-dihydro-1H-isoquinolin-7-yl)amino]pyrazolo[3,4-d]pyrimidin-1-yl]methyl]cyclopentanecarboxylic Acid]	< 100
COc1cc2c(cc1Nc1ncc3cnn(C[C@@H]4CCCC[C@H]4CO)c3n1)CN(C)CC2 (racemic) [Example 165, [rac-trans-2-[[6-[(6-methoxy-2-methyl-3,4-dihydro-1H-isoquinolin-7-yl)amino]pyrazolo[3,4-d]pyrimidin-1-yl]methyl]cyclohexyl]methanol]	< 100
COc1cc2c(cc1Nc1ncc3cnn(C[C@@H]4CCCC[C@@H]4CO)c3n1)CN(C)CC2 (racemic) [Example 166, [rac-cis-2-[[6-[(6-methoxy-2-methyl-3,4-dihydro-1H-isoquinolin-7-yl)amino]pyrazolo[3,4-d]pyrimidin-1-yl]methyl]cyclohexyl]methanol]	< 100
COc1cc2c(cc1Nc1ncc3cnn(C[C@@H]4CCC[C@H]4C(=O)O)c3n1)CN(C)CC2 (racemic) [Example 182, racemic trans-2-((6-((6-methoxy-2-methyl-1,2,3,4-tetrahydroisoquinolin-7-yl)amino)-1H-pyrazolo[3,4-d]pyrimidin-1-yl)methyl)cyclopentane-1-carboxylic Acid]	< 100
COc1cc2c(cc1Nc1ncc3cnn(C[C@@H]4C[C@@H]4C(=O)O)c3n1)CN(C)CC2 (racemic) [Example 188, (cis)-2-((6-((6-methoxy-2-methyl-1,2,3,4-tetrahydroisoquinolin-7-yl)amino)-1H-pyrazolo[3,4-d]pyrimidin-1-yl)methyl)cyclopropane-1-carboxylic Acid]	< 100
COc1cc2c(cc1Nc1ncc3cnn(CC4CCCOC4)c3n1)CN(C)CC2 (racemic) [Example 200, (S)-6-methoxy-2-methyl-N-(1-((tetrahydro-2H-pyran-3-yl)methyl)-1H-pyrazolo[3,4-d]pyrimidin-6-yl)-1,2,3,4-tetrahydroisoquinolin-7-amine and (R)-6-methoxy-2-methyl-N-(1-((tetrahydro-2H-pyran-3-yl)methyl)-1H-pyrazolo[3,4-d]pyrimidin-6-yl)-1,2,3,4-tetrahydroisoquinolin-7-amine racemic mixture]	< 100

Next, values leading:

IC50 [nM]	SMILES
< 100	COc1cc2c(cc1Nc1ncc3cnn([C@H]4CCC[C@H](C(=O)O)C4)c3n1)CN(C)CC2 (racemic) [Example 28, rac-(1S,3S)-3-(6-((6-methoxy-2-methyl-1,2,3,4-tetrahydroisoquinolin-7-yl)amino)-1H-pyrazolo[3,4-d]pyrimidin-1-yl)cyclohexane-1-carboxylic acid]
< 100	COc1cc2c(cc1Nc1ncc3cnn([C@H]4CCC[C@H](C(N)=O)C4)c3n1)CN(C)CC2 (racemic) [Example 29, rac-(1S,3S)-3-(6-((6-methoxy-2-methyl-1,2,3,4-tetrahydroisoquinolin-7-yl)amino)-1H-pyrazolo[3,4-d]pyrimidin-1-yl)cyclohexane-1-carboxamide]
< 100	COc1cc2c(cc1Nc1ncc3cnn([C@H]4CC[C@H](C(N)=O)C4)c3n1)CN(C)CC2 (racemic) [Example 42, rac-(1S,3S)-3-(6-((6-methoxy-2-methyl-1,2,3,4-tetrahydroisoquinolin-7-yl)amino)-1H-pyrazolo[3,4-d]pyrimidin-1-yl)cyclopentane-1-carboxamide]
< 100	COc1cc2c(cc1Nc1ncc3cnn([C@H]4CCC[C@H](O)C4)c3n1)CN(C)CC2 (racemic) [Example 44, rac-(trans)-3-(6-((6-methoxy-2-methyl-1,2,3,4-tetrahydroisoquinolin-7-yl)amino)-1H-pyrazolo[3,4-d]pyrimidin-1-yl)cyclohexan-1-ol]
< 100	COc1cc2c(cc1Nc1ncc3cnn([C@H]4CC[C@H](CO)C4)c3n1)CN(C)CC2 (racemic) [Example 48, rac-(trans-3-(6-((6-methoxy-2-methyl-1,2,3,4-tetrahydroisoquinolin-7-yl)amino)-1H-pyrazolo[3,4-d]pyrimidin-1-yl)cyclopentyl)methanol]
< 100	COc1cc2c(cc1Nc1ncc3cnn([C@H]4CCC[C@H](C(=O)N(C)C)C4)c3n1)CN(C)CC2 (racemic) [Example 59, rac-(trans)-3-(6-((6-methoxy-2-methyl-1,2,3,4-tetrahydroisoquinolin-7-yl)amino)-1H-pyrazolo[3,4-d]pyrimidin-1-yl)-N,N-dimethylcyclohexane-1-carboxamide]
